Test results reported in US20100249093A1, “Substituted Heteroarylpiperidine Derivatives As Melanocortin-4 Receptor Modulators” (SANTHERA PHARMACEUTICALS (SCHWEIZ) AG, priority 2007, published 2010).

Experiments:
[1] = target: T1, human melanocortin-4 receptor (MC-4R) (Homo sapiens, UniProt P32245); assay: Membrane binding assay: competition with fluorescence labeled NDP-alpha-MSH, fluorescence polarization; details: HEK293 cell membrane preparations expressing human MC-4R, read-out: hMC-4R binding assay IC50
T1 construct: expressed in transfected cells; host or cells: HEK293

[2] = target: T1, human melanocortin-4 receptor (MC-4R); assay: Functional assay: agonistic activity, cAMP production in membrane preparations compared with NDP-alpha-MSH, fluorescence polarization; assay type: biochemical; details: for Emax: cAMP produced compared to stimulation with NDP-alpha-MSH, read-out: % activation functional assay; for EC50: cAMP production, membrane preparations from HEK293 cells expressing human MC-4R, read-out: hMC-4R functional assay EC50

T1 sequence (P32245 whole entry): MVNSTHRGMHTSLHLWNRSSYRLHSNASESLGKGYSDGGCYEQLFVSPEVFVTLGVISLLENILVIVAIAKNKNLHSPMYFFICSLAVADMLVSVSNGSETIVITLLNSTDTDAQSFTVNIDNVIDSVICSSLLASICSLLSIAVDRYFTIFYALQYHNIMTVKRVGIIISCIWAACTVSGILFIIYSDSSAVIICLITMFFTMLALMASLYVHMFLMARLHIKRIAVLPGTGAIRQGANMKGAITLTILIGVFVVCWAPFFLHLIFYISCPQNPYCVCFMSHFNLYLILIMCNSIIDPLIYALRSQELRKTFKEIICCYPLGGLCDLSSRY

IC50 [1] [nM]	Emax [2] [%]	EC50 [2] [nM]	Structure (SMILES)
≤ 100	-6	–	CC[C@H](COc1cccnc1C1CCN(C(=O)[C@@H](Cc2ccc(Cl)cc2Cl)NC(=O)N2CCC[C@@H]2C(C)(C)O)CC1)N(C)C [Example 121]
≤ 100	0	–	CC[C@H](COc1cccnc1C1CCN(C(=O)[C@@H](Cc2ccc(Cl)cc2Cl)NC(=O)N2CC(O)(C(C)C)C2)CC1)N(C)C [Example 122]
≤ 100	3	–	CC[C@H](COc1cccnc1C1CCN(C(=O)[C@@H](Cc2ccc(Cl)cc2Cl)NC(=O)N2CC(O)(C3CC3)C2)CC1)N(C)C [Example 123]
≤ 100	-8	–	CC[C@H](COc1cccnc1C1CCN(C(=O)[C@@H](Cc2ccc(Cl)cc2Cl)NC(=O)N2CCCC(C)(O)C2)CC1)N(C)C (stereo partly shown) [Example 125]
≤ 100	-8	–	CC[C@H](COc1cccnc1C1CCN(C(=O)[C@@H](Cc2ccc(Cl)cc2Cl)NC(=O)N2CCC[C@H]2C(C)(C)O)CC1)N(C)C [Example 126]
≤ 100	-3	–	CC[C@H](COc1cccnc1C1CCN(C(=O)[C@@H](Cc2ccc(Cl)cc2Cl)NC(=O)N2CC[C@H]2CO)CC1)N(C)C [Example 127]
≤ 100	-8	–	CC[C@H](COc1cccnc1C1CCN(C(=O)[C@@H](Cc2ccc(Cl)cc2Cl)NC(=O)N2CCC(O)(C(F)(F)F)C2)CC1)N(C)C (stereo partly shown) [Example 128]
≤ 100	-5	–	CC[C@H](COc1cccnc1C1CCN(C(=O)[C@@H](Cc2ccc(Cl)cc2Cl)NC(=O)N2CC(O)(C(F)(F)F)C2)CC1)N(C)C [Example 129]
≤ 100	-2	–	CC[C@H](COc1cccnc1C1CCN(C(=O)[C@@H](Cc2ccc(Cl)cc2Cl)NC(=O)N2CCC(O)(CC3CC3)C2)CC1)N(C)C (stereo partly shown) [Example 130]
≤ 100	-2	–	CC[C@H](COc1cccnc1C1CCN(C(=O)[C@@H](Cc2ccc(Cl)cc2Cl)NC(=O)N2CC[C@@H](N)C2)CC1)N(C)C [Example 131]
≤ 100	-4	–	CC[C@H](COc1cccnc1C1CCN(C(=O)[C@@H](Cc2ccc(Cl)cc2Cl)NC(=O)N2CC[C@@H](N(C)C)C2)CC1)N(C)C [Example 132]
≤ 100	-6	–	CC[C@H](COc1cccnc1C1CCN(C(=O)[C@@H](Cc2ccc(Cl)cc2Cl)NC(=O)N(C)C2COC2)CC1)N(C)C [Example 133]
≤ 100	-2	–	CC[C@H](COc1cccnc1C1CCN(C(=O)[C@@H](Cc2ccc(Cl)cc2Cl)NC(=O)N(C)CC2(C)COC2)CC1)N(C)C [Example 134]
≤ 100	3	–	CC[C@@H](CN(C)C)Oc1cccnc1C1CCN(C(=O)[C@@H](Cc2ccc(Cl)cc2Cl)NC(=O)N(C)CC)CC1 [Example 135]
≤ 100	10	–	CC[C@@H](CN(C)C)Oc1cccnc1C1CCN(C(=O)[C@@H](Cc2ccc(Cl)cc2Cl)NC(=O)N2CC(O)C2)CC1 [Example 136]
≤ 100	8	–	CC[C@@H](CN(C)C)Oc1cccnc1C1CCN(C(=O)[C@@H](Cc2ccc(Cl)cc2Cl)NC(=O)N2CC[C@H](O)C2)CC1 [Example 137]
≤ 100	9	–	CC[C@@H](CN(C)C)Oc1cccnc1C1CCN(C(=O)[C@@H](Cc2ccc(Cl)cc2Cl)NC(=O)N(C)CCOC)CC1 [Example 138]
≤ 100	-10	–	CC[C@@H](CN(C)C)Oc1cccnc1C1CCN(C(=O)[C@@H](Cc2ccc(Cl)cc2Cl)NC(=O)N2CC[C@@H](O)C2)CC1 [Example 139]
≤ 100	-3	–	CN1CCC[C@H](Oc2cccnc2C2CCN(C(=O)[C@@H](Cc3ccc(Cl)cc3Cl)NC(=O)N3CC[C@H](O)C3)CC2)C1 [Example 141]
≤ 100	-32	≤ 100	COCCN(C)C(=O)N[C@H](Cc1ccc(Cl)cc1Cl)C(=O)N1CCC(c2ncccc2O[C@H]2CCCN(C)C2)CC1 [Example 142]
≤ 100	-1	–	CN1CCC[C@H](Oc2cccnc2C2CCN(C(=O)[C@@H](Cc3ccc(Cl)cc3Cl)NC(=O)N3CC[C@@H](O)C3)CC2)C1 [Example 143]
≤ 100	2	–	CN1CCN(Cc2cc(F)cnc2C2CCN(C(=O)[C@@H](Cc3ccc(Cl)cc3Cl)NC(=O)N3CC(O)C3)CC2)CC1 [Example 144]

The next lines start with the molecule.

Structure (SMILES)	IC50 [1] [nM]	Emax [2] [%]	EC50 [2] [nM]
CC[C@H](COc1cccnc1C1CCN(C(=O)[C@@H](Cc2ccc(Cl)cc2Cl)NC(=O)N2CC(OC)C2)CC1)N1CCCC1 [Example 98]	≤ 100	13	–
CC[C@H](COc1cccnc1C1CCN(C(=O)[C@@H](Cc2ccc(Cl)cc2Cl)NC(=O)N2CC(C)(O)C2)CC1)N1CCCC1 [Example 99]	≤ 100	0	–
CC[C@H](COc1cccnc1C1CCN(C(=O)[C@@H](Cc2ccc(Cl)cc2Cl)NC(=O)N2CC(OC(C)=O)C2)CC1)N1CCCC1 [Example 100]	≤ 100	-7	–
CC[C@H](COc1cccnc1C1CCN(C(=O)[C@@H](Cc2ccc(Cl)cc2Cl)NC(=O)N(C)CC)CC1)N(C)C [Example 101]	≤ 100	5	–
CC[C@H](COc1cccnc1C1CCN(C(=O)[C@@H](Cc2ccc(Cl)cc2Cl)NC(=O)N2CC(O)C2)CC1)N(C)C [Example 102]	≤ 100	-1	–
CC[C@H](COc1cccnc1C1CCN(C(=O)[C@@H](Cc2ccc(Cl)cc2Cl)NC(=O)N2CC[C@H](O)C2)CC1)N(C)C [Example 103]	≤ 100	-9	≤ 100
CC[C@H](COc1cccnc1C1CCN(C(=O)[C@@H](Cc2ccc(Cl)cc2Cl)NC(=O)N2CCC[C@H](O)C2)CC1)N(C)C [Example 105]	≤ 100	-3	–
CC[C@H](COc1cccnc1C1CCN(C(=O)[C@@H](Cc2ccc(Cl)cc2Cl)NC(=O)N2CCC[C@H]2CO)CC1)N(C)C [Example 106]	≤ 100	-1	–
CC[C@H](COc1cccnc1C1CCN(C(=O)[C@@H](Cc2ccc(Cl)cc2Cl)NC(=O)N2CCC[C@@H]2CO)CC1)N(C)C [Example 107]	≤ 100	-2	–
CC[C@H](COc1cccnc1C1CCN(C(=O)[C@@H](Cc2ccc(Cl)cc2Cl)NC(=O)N2CC[C@@H](OC)C2)CC1)N(C)C [Example 108]	≤ 100	0	–
CC[C@H](COc1cccnc1C1CCN(C(=O)[C@@H](Cc2ccc(Cl)cc2Cl)NC(=O)N2CC[C@H](OC)C2)CC1)N(C)C [Example 109]	≤ 100	-11	–
CC[C@H](COc1cccnc1C1CCN(C(=O)[C@@H](Cc2ccc(Cl)cc2Cl)NC(=O)N2CCC(C)(O)C2)CC1)N(C)C (stereo partly shown) [Example 110]	≤ 100	0	–
CC[C@H](COc1cccnc1C1CCN(C(=O)[C@@H](Cc2ccc(Cl)cc2Cl)NC(=O)N(C)CC(C)(C)O)CC1)N(C)C [Example 111]	≤ 100	-23	–
CC[C@H](COc1cccnc1C1CCN(C(=O)[C@@H](Cc2ccc(Cl)cc2Cl)NC(=O)N2CCC(C)(O)CC2)CC1)N(C)C [Example 112]	≤ 100	-8	–
CC[C@H](COc1cccnc1C1CCN(C(=O)[C@@H](Cc2ccc(Cl)cc2Cl)NC(=O)N2CCC[C@@H](O)C2)CC1)N(C)C [Example 113]	≤ 100	-14	–
CC[C@H](COc1cccnc1C1CCN(C(=O)[C@@H](Cc2ccc(Cl)cc2Cl)NC(=O)N2CC[C@H](CO)C2)CC1)N(C)C [Example 114]	≤ 100	-3	–
CC[C@H](COc1cccnc1C1CCN(C(=O)[C@@H](Cc2ccc(Cl)cc2Cl)NC(=O)N2CC[C@@H](CO)C2)CC1)N(C)C [Example 115]	≤ 100	-8	–
CC[C@H](COc1cccnc1C1CCN(C(=O)[C@@H](Cc2ccc(Cl)cc2Cl)NC(=O)N2CC[C@@H](O)C2)CC1)N(C)C [Example 116]	≤ 100	-1	–
CC[C@H](COc1cccnc1C1CCN(C(=O)[C@@H](Cc2ccc(Cl)cc2Cl)NC(=O)N2CC[C@H](OC(C)=O)C2)CC1)N(C)C [Example 117]	≤ 100	0	–
C#CC1(O)CN(C(=O)N[C@H](Cc2ccc(Cl)cc2Cl)C(=O)N2CCC(c3ncccc3OC[C@@H](CC)N(C)C)CC2)C1 [Example 118]	≤ 100	11	–
CC[C@H](COc1cccnc1C1CCN(C(=O)[C@@H](Cc2ccc(Cl)cc2Cl)NC(=O)N2CC[C@@H](OC(C)=O)C2)CC1)N(C)C [Example 120]	≤ 100	5	–
